Source: PMC8333425, “Discovery of a dual Ras and ARF6 inhibitor from a GPCR endocytosis screen” (Nature Communications, 2021)

Assays:
Assay in all cases: KINOMEscan kinase binding assay
[1] = target: T1, 384 kinases from the human genome (Homo sapiens, UniProt P52564); conditions: kinase MEK6 (Entrez MAP2K6)
T1 construct: purchased Eurofin/DiscoverX
Summary of the method: (§1)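 Competition binding (KINOMEscan) across 384 human kinases with compound at 10 µM. Ligand binding was expressed relative to DMSO (100%) as the average of duplicates from one experiment. S(10) selectivity score was derived.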

[2] = target: T2, 384 kinases from the human genome (Homo sapiens, UniProt Q12851); conditions: kinase MAP4K2 (Entrez MAP4K2)
T2 construct: purchased Eurofin/DiscoverX
Summary of the method: as §1

[3] = target: T3, 384 kinases from the human genome (Homo sapiens, UniProt Q9HBH9); conditions: kinase MKNK2 (Entrez MKNK2)
T3 construct: purchased Eurofin/DiscoverX
T3 sequence (Q9HBH9 whole entry): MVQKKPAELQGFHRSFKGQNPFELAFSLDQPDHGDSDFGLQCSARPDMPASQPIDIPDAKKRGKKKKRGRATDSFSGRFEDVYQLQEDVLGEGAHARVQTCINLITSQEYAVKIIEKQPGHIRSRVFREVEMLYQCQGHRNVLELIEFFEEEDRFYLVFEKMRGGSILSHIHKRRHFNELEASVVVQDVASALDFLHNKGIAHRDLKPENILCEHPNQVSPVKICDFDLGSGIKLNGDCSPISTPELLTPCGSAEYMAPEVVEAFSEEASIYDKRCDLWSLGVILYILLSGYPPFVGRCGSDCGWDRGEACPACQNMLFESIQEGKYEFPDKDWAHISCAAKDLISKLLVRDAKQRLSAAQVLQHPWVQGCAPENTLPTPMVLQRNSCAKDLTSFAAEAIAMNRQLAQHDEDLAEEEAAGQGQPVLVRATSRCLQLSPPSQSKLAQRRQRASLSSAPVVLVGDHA
Summary of the method: as §1

[4] = target: T4, 384 kinases from the human genome (Homo sapiens, UniProt P49840); conditions: kinase GSK3A (Entrez GSK3A)
T4 construct: purchased Eurofin/DiscoverX
Summary of the method: as §1

[5] = target: T5, 384 kinases from the human genome (Homo sapiens, UniProt O15197); conditions: kinase EPHB6 (Entrez EPHB6)
T5 construct: purchased Eurofin/DiscoverX
Summary of the method: as §1

[6] = target: T6, 384 kinases from the human genome (Homo sapiens, UniProt O14578); conditions: kinase CIT (Entrez CIT)
T6 construct: purchased Eurofin/DiscoverX
Summary of the method: as §1

[7] = target: T7, 384 kinases from the human genome (Homo sapiens, UniProt Q6ZWH5); conditions: kinase NEK10 (Entrez NEK10)
T7 construct: purchased Eurofin/DiscoverX
Summary of the method: as §1

[8] = target: T8, 384 kinases from the human genome (Homo sapiens, UniProt P57058); conditions: kinase HUNK (Entrez HUNK)
T8 construct: purchased Eurofin/DiscoverX
Summary of the method: as §1

[9] = target: T9, 384 kinases from the human genome (Homo sapiens, UniProt Q99640); conditions: kinase PKMYT1 (Entrez PKMYT1)
T9 construct: purchased Eurofin/DiscoverX
T9 sequence (Q99640 whole entry): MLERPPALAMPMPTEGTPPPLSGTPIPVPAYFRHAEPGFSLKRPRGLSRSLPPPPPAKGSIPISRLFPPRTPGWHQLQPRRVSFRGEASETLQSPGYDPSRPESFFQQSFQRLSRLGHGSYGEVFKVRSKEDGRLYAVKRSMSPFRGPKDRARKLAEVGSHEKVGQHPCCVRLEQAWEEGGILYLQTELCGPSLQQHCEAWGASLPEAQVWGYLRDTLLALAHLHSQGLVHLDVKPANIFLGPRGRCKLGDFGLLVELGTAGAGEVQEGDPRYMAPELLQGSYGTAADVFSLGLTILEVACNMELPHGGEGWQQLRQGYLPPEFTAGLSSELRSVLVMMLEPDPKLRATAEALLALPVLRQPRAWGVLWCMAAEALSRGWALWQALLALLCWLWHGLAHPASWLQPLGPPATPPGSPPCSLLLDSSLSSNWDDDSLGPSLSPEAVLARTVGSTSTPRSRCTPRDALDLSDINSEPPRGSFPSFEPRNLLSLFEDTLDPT
Summary of the method: as §1

[10] = target: T10, 384 kinases from the human genome (Homo sapiens, UniProt Q86YV6); conditions: kinase MYLK4 (Entrez MYLK4)
T10 construct: purchased Eurofin/DiscoverX
Summary of the method: as §1

[11] = target: T11, 384 kinases from the human genome (Homo sapiens, UniProt Q8TBX8); conditions: kinase PIP5K2C (Entrez PIP4K2C)
T11 construct: purchased Eurofin/DiscoverX
T11 sequence (Q8TBX8 whole entry): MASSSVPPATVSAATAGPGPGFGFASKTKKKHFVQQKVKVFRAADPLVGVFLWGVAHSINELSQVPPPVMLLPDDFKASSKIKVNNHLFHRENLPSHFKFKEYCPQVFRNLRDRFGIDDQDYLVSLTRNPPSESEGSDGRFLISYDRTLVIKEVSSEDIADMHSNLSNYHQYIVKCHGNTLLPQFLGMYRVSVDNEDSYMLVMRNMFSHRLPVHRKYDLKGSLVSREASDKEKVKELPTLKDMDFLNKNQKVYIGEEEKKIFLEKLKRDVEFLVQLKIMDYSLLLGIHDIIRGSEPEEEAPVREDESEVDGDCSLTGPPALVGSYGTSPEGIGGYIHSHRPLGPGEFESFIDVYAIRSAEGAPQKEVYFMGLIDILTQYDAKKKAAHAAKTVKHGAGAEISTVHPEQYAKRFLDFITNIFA
Summary of the method: as §1

[12] = target: T12, 384 kinases from the human genome (Homo sapiens, UniProt Q9HC98); conditions: kinase NEK6 (Entrez NEK6)
T12 construct: purchased Eurofin/DiscoverX
Summary of the method: as §1

[13] = target: T13, 384 kinases from the human genome (Homo sapiens, UniProt Q15746); conditions: kinase MYLK (Entrez MYLK)
T13 construct: purchased Eurofin/DiscoverX
Summary of the method: as §1

[14] = target: T14, 384 kinases from the human genome (Homo sapiens, UniProt P48730); conditions: kinase CSNK1D (Entrez CSNK1D)
T14 construct: purchased Eurofin/DiscoverX
T14 sequence (P48730 whole entry): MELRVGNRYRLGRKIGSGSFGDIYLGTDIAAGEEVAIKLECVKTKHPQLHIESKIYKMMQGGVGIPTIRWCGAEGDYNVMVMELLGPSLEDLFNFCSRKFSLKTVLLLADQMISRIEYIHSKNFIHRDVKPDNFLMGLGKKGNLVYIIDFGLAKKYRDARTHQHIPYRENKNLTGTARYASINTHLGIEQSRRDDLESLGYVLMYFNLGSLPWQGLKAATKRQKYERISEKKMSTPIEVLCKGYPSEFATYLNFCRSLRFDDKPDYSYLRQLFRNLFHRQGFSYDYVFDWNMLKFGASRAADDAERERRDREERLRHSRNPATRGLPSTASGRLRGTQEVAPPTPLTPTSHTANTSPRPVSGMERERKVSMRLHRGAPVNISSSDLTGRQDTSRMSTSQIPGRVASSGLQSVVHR
Summary of the method: as §1

[15] = target: T15, 384 kinases from the human genome (Homo sapiens, UniProt Q8WU08); conditions: kinase YANK1 (Entrez STK32A)
T15 construct: purchased Eurofin/DiscoverX
Summary of the method: as §1

[16] = target: T16, 384 kinases from the human genome (Homo sapiens, UniProt Q16539); conditions: kinase p38-alpha (Entrez MAPK14)
T16 construct: purchased Eurofin/DiscoverX
Summary of the method: as §1

[17] = target: T17, 384 kinases from the human genome (Homo sapiens, UniProt Q9UKI8); conditions: kinase TLK1 (Entrez TLK1)
T17 construct: purchased Eurofin/DiscoverX
Summary of the method: as §1

[18] = target: T18, 384 kinases from the human genome (Homo sapiens, UniProt Q13882); conditions: kinase BRK (Entrez PTK6)
T18 construct: purchased Eurofin/DiscoverX
T18 sequence (Q13882 whole entry): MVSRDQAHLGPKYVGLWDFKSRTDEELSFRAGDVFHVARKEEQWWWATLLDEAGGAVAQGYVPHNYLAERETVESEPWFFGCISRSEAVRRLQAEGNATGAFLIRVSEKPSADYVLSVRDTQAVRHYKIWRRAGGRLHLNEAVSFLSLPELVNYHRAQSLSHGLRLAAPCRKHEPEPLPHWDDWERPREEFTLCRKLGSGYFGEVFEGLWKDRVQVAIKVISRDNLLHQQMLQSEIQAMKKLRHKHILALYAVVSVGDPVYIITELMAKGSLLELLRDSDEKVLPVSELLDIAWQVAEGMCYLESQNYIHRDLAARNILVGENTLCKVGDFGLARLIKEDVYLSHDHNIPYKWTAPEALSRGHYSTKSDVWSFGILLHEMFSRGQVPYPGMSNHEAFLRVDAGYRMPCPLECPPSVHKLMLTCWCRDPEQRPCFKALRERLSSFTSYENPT
Summary of the method: as §1

[19] = target: T19, 384 kinases from the human genome (Homo sapiens, UniProt Q86UE8); conditions: kinase TLK2 (Entrez TLK2)
T19 construct: purchased Eurofin/DiscoverX
Summary of the method: as §1

[20] = target: T20, 384 kinases from the human genome (Homo sapiens, UniProt Q8N5S9); conditions: kinase CAMKK1 (Entrez CAMKK1)
T20 construct: purchased Eurofin/DiscoverX
T20 sequence (Q8N5S9 whole entry): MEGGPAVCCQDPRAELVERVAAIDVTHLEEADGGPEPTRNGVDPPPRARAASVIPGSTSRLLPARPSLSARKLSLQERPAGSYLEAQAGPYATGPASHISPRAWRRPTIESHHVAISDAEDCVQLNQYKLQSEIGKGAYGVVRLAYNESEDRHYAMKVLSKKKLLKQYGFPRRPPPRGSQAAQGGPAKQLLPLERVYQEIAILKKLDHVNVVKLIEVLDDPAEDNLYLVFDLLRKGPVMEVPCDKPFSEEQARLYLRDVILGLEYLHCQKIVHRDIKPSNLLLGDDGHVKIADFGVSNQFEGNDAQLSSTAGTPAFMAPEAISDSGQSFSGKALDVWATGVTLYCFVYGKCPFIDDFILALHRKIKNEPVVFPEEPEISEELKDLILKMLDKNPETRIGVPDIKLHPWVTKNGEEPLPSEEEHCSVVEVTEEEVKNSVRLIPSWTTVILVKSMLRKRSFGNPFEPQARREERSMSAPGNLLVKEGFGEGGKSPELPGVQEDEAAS
Summary of the method: as §1

[21] = target: T21, 384 kinases from the human genome (Homo sapiens, UniProt P00533)
T21 construct: purchased Eurofin/DiscoverX
T21 sequence (P00533 25-1210): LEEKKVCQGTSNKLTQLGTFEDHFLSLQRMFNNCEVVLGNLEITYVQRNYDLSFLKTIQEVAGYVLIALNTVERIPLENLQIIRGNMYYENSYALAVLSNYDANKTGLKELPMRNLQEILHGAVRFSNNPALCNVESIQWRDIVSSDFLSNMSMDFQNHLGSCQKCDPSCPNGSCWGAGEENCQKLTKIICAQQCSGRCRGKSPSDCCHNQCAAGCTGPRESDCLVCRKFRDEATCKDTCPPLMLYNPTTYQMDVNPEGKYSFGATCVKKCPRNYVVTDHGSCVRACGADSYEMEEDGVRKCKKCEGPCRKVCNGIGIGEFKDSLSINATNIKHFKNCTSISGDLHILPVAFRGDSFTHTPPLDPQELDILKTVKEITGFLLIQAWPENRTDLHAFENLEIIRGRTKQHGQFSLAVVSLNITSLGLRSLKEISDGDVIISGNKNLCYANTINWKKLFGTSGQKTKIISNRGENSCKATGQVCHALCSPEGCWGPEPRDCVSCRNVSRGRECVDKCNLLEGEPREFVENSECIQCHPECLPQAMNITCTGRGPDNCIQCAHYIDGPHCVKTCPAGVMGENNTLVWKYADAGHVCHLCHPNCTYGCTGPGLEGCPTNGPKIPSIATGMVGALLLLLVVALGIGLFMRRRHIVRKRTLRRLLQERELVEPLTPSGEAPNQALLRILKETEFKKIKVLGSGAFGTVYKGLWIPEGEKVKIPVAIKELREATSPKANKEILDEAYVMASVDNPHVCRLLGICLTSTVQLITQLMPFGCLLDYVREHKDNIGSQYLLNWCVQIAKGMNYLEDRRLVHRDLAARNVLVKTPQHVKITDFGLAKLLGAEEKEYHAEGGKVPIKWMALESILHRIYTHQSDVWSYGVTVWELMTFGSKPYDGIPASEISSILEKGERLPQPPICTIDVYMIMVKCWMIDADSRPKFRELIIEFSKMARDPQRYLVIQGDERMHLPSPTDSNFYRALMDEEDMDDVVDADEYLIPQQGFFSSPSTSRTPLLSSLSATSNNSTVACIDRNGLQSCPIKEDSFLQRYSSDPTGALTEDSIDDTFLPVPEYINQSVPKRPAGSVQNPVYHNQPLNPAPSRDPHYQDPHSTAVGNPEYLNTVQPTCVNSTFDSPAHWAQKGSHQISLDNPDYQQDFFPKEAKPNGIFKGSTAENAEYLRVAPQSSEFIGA
Summary of the method: as §1

[22] = target: T22, 384 kinases from the human genome (Homo sapiens, UniProt Q12852); conditions: kinase DLK (Entrez MAP3K12)
T22 construct: purchased Eurofin/DiscoverX
T22 sequence (Q12852 whole entry): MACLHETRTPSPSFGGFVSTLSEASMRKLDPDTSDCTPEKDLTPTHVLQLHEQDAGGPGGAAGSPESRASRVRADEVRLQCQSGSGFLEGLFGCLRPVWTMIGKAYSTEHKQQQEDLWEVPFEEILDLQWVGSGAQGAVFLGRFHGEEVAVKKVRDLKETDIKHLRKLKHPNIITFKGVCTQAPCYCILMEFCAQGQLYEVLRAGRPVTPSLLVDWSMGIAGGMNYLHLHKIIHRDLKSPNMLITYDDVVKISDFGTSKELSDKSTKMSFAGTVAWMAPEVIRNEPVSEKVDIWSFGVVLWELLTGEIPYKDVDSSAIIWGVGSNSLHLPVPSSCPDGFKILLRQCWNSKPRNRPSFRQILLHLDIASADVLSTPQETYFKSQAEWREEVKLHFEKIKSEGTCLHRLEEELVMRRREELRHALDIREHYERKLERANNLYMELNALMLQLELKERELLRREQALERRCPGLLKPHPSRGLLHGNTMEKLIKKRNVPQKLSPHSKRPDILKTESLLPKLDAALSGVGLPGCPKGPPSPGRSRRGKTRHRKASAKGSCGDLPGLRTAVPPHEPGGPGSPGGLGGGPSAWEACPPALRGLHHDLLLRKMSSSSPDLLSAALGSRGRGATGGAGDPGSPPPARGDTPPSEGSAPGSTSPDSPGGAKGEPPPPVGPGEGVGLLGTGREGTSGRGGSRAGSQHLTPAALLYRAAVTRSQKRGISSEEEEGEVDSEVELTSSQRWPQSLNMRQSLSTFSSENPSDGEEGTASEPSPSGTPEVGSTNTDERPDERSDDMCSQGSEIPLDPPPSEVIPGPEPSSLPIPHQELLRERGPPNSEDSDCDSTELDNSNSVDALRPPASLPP
Summary of the method: as §1

[23] = target: T23, 384 kinases from the human genome (Homo sapiens, UniProt P53355); conditions: kinase DAPK1 (Entrez DAPK1)
T23 construct: purchased Eurofin/DiscoverX
Summary of the method: as §1

[24] = target: T24, 384 kinases from the human genome (Homo sapiens, UniProt Q9Y6M4); conditions: kinase CSNK1G3 (Entrez CSNK1G3)
T24 construct: purchased Eurofin/DiscoverX
Summary of the method: as §1

[25] = target: T25, 384 kinases from the human genome (Homo sapiens, UniProt P45983); conditions: kinase JNK1 (Entrez MAPK8)
T25 construct: purchased Eurofin/DiscoverX
Summary of the method: as §1

[26] = target: T26, 384 kinases from the human genome (Homo sapiens, UniProt Q9NWZ3); conditions: kinase IRAK4 (Entrez IRAK4)
T26 construct: purchased Eurofin/DiscoverX
Summary of the method: as §1

CC(C)C(=O)N1CCN(c2ccc(NC(=O)c3cc4ccccc4o3)cc2Cl)CC1 [Compound 21]
Percent Control [1]: 97%
Percent Control [2]: 100%
Percent Control [3]: 97%
Percent Control [4]: 92%
Percent Control [5]: 98%
Percent Control [6]: 75%
Percent Control [7]: 95%
Percent Control [8]: 69%
Percent Control [9]: 83%
Percent Control [10]: 99%
Percent Control [11]: 65%
Percent Control [12]: 94%
Percent Control [13]: 93%
Percent Control [14]: 86%
Percent Control [15]: 81%
Percent Control [16]: 100%
Percent Control [17]: 55%
Percent Control [18]: 88%
Percent Control [19]: 100%
Percent Control [20]: 100%
binding to EGFR ([21]; 10 µM of 21): failed to bind
Percent Control ([21]; kinase EGFR (Entrez EGFR)): 89%
Percent Control [22]: 100%
Percent Control [23]: 90%
Percent Control [24]: 100%
Percent Control [25]: 63%
Percent Control [26]: 76%
